Reference: patent publication US8143212B2 (Vicuron Pharmaceuticals Inc., priority 2002, dated 2012)
Converted amounts (≈) assume the structure as drawn. “And” between values parts separate entries of the source, which are not always exact repeats. Identical values can stand only once. Like-named read-outs stand apart in the source and are kept apart here.

Legend:
B subtilis = experiment: MIC, microbiological activity (Table 3); type: cell-based; conditions: L 102 B subtilis ATCC; read-out: MIC
P vulgaris = experiment: MIC, microbiological activity (Table 3); type: cell-based; conditions: L 79 P vulgaris; read-out: MIC
[1] = Pharmacokinetics and renal excretion in healthy subjects, single 1000 mg IV; type: in vivo, human; conditions: for t1/2: healthy subjects, single 1000 mg IV
Experimental: Blood samples were drawn into heparinized tubes and centrifuged. Plasma was separated and stored frozen at −20° C. until time of assay. Plasma and urine samples were assayed for dalbavancin using validated LC/MS/MS methods. […] The peak concentration (Cmax) values were obtained directly from the observed data. The area under the plasma concentration-time curve (AUC) was calculated using the linear trapezoidal rule. Clearance (CL) was computed as dose/AUC. The elimination half life (t1/2) was estimated by linear regression of the log-linear portion of the log concentration versus time curve. Estimates of the volume of distribution (VZ) was calculated using the regression parameters, while the volume of distribution at steady state (VSS) was calculated from the area under the first moment curve (AUMC) multiplied by the dose and divided by AUC. The cumulative amount of dalbavancin excreted in urine was determined as the integrand of the urine excretion rate (AURC). CLR, or renal clearance, was calculated as the ratio: CLR=AURC/AUC.

S haemolyticus = experiment: MIC, microbiological activity (Table 3); type: cell-based; conditions: L 602 S haemolyticus clin. isolate; read-out: MIC
human albumin = human albumin (Homo sapiens, UniProt P02768); conditions: pH 7.4
Experimental: Integrated heat effects, after correction for heats of dilution, were analyzed by non-linear regression using a simple single-site binding model with the standard Microcal ORIGIN software package. Raw data (μcal/sec) for each injection were integrated to give the total heat effect per addition, then divided by amount of injectant to give kcal/mole of injectant. The same integration was applied for control dilution effects, and this was subtracted from the actual titration data. This provided a differential of the binding curve in which the extent of binding is proportional to the total heat liberated (or absorbed). This was then analyzed by non-linear regression methods in terms of various standard binding models. The simplest model assumes simple non-competitive binding equilibrium, and gives three parameters:

[2] = rat, in vivo
Experimental: (§2) Excreta and more than 40 different tissues were collected through 70 days post-administration, and the tissue distribution and pharmacokinetics of drug-derived radioactivity were determined.
(§3) Following dose administration, urine and feces were collected at 24 hour intervals to 14, 36, and 70 days after the dose (3 rats/final collection time). Water and methanol cage washes were also collected. Carcasses were analyzed at the end of the collection period. All samples were analyzed for total radioactivity content by liquid scintillation counting (LSC).

Rat mass balance study = conditions: rats
Experimental: as §2, §3

[3] = Plasma pharmacokinetics in thigh-infected neutropenic mice; conditions: intraperitoneal
Experimental: (§4) Neutropenia in this and all other studies was produced by injections of cyclophosphamide, 150 mg/kg 4 days prior to study, 100 mg/kg 1 day prior to study and 100 mg/kg every 48 h after start of infection until end of study. Neutrophil counts remained less than 100/mm^3 for the duration of study. Doses of 2.5, 5, 10, 20; 40, and 80 mg/kg were studied. Drug was administered by intraperitoneal injection of 0.2 ml volume. Blood was removed from groups of three mice by retroorbital aspiration into heparinized capillary tubes at 0.5, 1, 2, 4, 6, 24, 48, 72, and 96 hours after dosing. […] AUC was calculated by the trapezoidal rule from mean concentrations.

in vivo = conditions: Swiss ICR, mouse, plasma, ip
Experimental: as §4

[4] = Phase II SSTI trial: safety (adverse events); type: in vivo, human
Experimental: Each patient who received at least one dose of study drug (ITT population) was evaluated for drug safety through monitoring of adverse events (AE), including abnormal clinical laboratory test results and vital signs. AE were rated by the investigator as to their severity (mild, moderate, severe, life-threatening), and by the relationship to the study drug (not related, unlikely related, possibly related, or probably related).

C albicans = experiment: MIC, microbiological activity (Table 3); type: cell-based; conditions: L 145 C albicans SKF2270; read-out: MIC
S. pneumoniae = experiment: MIC by NCCLS microdilution of study organisms (Table 29); type: cell-based; conditions: Streptococcus pneumoniae
Experimental: (§1) MICs were determined in MHB by standard NCCLS microdilution techniques. […] All MICs were performed at least in duplicate.

S. aureus = experiment: as above; type: cell-based
Experimental: as §1

[5] = human, in vivo
Description: The study enrolled otherwise healthy subjects with mild, moderate, or severe hepatic impairment (Child-Pugh scores 5 to 6, 7 to 9, and 10 to 15, respectively) and matched control subjects with normal hepatic function.

E faecalis = experiment: MIC, microbiological activity (Table 3); type: cell-based; conditions: read-out: MIC
[6] = test system: skin and soft tissue infections (SSTI); experiment: Phase II SSTI trial: clinical response; type: in vivo, human
Experimental: This randomized, controlled study evaluated the safety and efficacy of two dose regimens of dalbavancin.
There were 62 patients randomized into the study; all received at least one dose of study medication. Four study populations were evaluated for safety and efficacy and were defined as follows: The intent-to-treat (ITT) population included all patients who received at least one dose of study drug (all randomized study subjects).
The effectiveness of the three treatment regimens was determined by assessing the patients' clinical response and the documented or presumed microbiological responses. The primary efficacy endpoint was clinical response at the follow-up visit for the clinically evaluable population. Clinical response, for both EOT and FU visits, was categorized as success (cure or improvement) or failure (including indeterminate results). Patients classified as successes must not have received additional systemic antibacterial treatment for their infection. Failure was defined as persistence of one or more local or systemic signs and symptoms of SSTI such that treatment with new or additional systemic antibacterial agents was required for the SSTI.

in vitro = type: cell-based, S. aureus; conditions: mouse, serum
Description: This degree of binding was considered in subsequent pharmacodynamic analyses. The degree of binding in human serum would be estimated to be 96%.

P aeruginosas = experiment: MIC, microbiological activity (Table 3); type: cell-based; conditions: L 4 P aeruginosas ATCC10145; read-out: MIC
[7] = Staphylococcus aureus, MRSA, S. aureus strain MRSA
[8] = Staphylococcus aureus, S. aureus strain Smith

Chain of human albumin (P02768 25-609): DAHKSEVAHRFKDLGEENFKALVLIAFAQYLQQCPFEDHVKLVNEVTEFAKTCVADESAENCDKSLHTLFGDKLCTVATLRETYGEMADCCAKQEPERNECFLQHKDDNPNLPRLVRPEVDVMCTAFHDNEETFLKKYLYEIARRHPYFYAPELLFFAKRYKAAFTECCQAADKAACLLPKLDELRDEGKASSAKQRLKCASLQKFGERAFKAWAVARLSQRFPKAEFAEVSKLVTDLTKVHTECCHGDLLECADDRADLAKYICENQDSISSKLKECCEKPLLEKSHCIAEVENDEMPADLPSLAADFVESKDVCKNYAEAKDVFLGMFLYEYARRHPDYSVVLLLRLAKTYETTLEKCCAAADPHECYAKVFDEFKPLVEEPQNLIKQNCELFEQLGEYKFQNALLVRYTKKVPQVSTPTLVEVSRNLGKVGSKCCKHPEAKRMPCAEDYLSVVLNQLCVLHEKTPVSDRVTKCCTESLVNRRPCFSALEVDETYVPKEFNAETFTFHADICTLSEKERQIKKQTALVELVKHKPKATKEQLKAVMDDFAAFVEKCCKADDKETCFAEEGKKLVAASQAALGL

CN[C@H]1C(=O)N[C@@H]2Cc3ccc(cc3)Oc3cc4cc(c3O[C@@H]3O[C@H](C(=O)O)[C@@H](O)[C@H](O)[C@H]3NC(=O)CCCCCCCCC(C)C)Oc3ccc(cc3Cl)[C@@H](O)[C@@H]3NC(=O)[C@H](NC(=O)[C@@H]4NC(=O)[C@@H](NC2=O)c2cc(cc(O)c2Cl)Oc2cc1ccc2O)c1ccc(O)c(c1)-c1c(O[C@H]2O[C@H](CO)[C@@H](O)[C@H](O)[C@@H]2O)cc(O)cc1[C@@H](C(=O)NCCCN(C)C)NC3=O [Dalbavancin]
MIC (B subtilis): < 0.03 µg/mL | MIC (P vulgaris): > 32 µg/mL | t1/2 ([1]; Max): 282 h | t1/2 ([1]; Min): 227 h | peak concentration ([1]; both, human, in vivo): ~165 µM | MIC (S haemolyticus): > 32 µg/mL | Calculated percent Binding (human albumin; 1 μM): 98.8% | Calculated percent Binding (human albumin; 10 μM): 98.8% | Calculated percent Binding (human albumin; 100 μM): 98.7% | Calculated percent Binding (human albumin; 165 μM): 98.6% | Calculated percent Binding (human albumin; 250 μM): 98.5% | Calculated percent Binding (human albumin; 500 μM): 98.0% | dose remaining in the carcass ([2]; male, Sprague-Dawley, 1680 h): 4.5 % of the dose | share of excreted radioactivity eliminated in feces ([2]; iv, 20 mg/kg): ⅓ | share of excreted radioactivity eliminated in urine ([2]; iv, 20 mg/kg): ⅔ | plasma t1/2 (Rat mass balance study): approximately 1 week | time of peak levels [3]: 4 to 6 h | half-life (in vivo): 7.6 to 13.1 h | ≧1 AE possibly/probably related to treatment ([4]; Single-dose dalbavancin (N = 20)): 55% | ≧1 AE possibly/probably related to treatment ([4]; Two-dose dalbavancin (N = 21)): 48% | AE leading to discontinuation of study medication ([4]; human, in vivo): 0% | clinically significant hepatotoxicity or nephrotoxicity ([4]; in vivo): no evidence | premature discontinuation of treatment due to an AE ([4]; in vivo): No dalbavancin-treated patient discontinued treatment prematurely | serious adverse events related to study drug treatment ([4]; in vivo): no serious adverse events | MIC (C albicans): > 32 µg/mL | MIC (S. pneumoniae; S. pneumoniae SP1396): 0.008 µg/mL (≈ 0.0044 µM) | MIC (S. pneumoniae; S. pneumoniae strain 1199, read-out: MIC): 0.004 µg/mL (≈ 0.0022 µM) | MIC (S. pneumoniae; S. pneumoniae strain 1293, read-out: MIC): 0.004 µg/mL (≈ 0.0022 µM) | MIC (S. pneumoniae; S. pneumoniae strain 1325, read-out: MIC): 0.008 µg/mL (≈ 0.0044 µM) | MIC (S. pneumoniae; S. pneumoniae strain 1329, read-out: MIC): 0.008 µg/mL (≈ 0.0044 µM) | MIC (S. pneumoniae; S. pneumoniae strain 10813, read-out: MIC): 0.03 µg/mL (≈ 0.0165 µM) | MIC (S. pneumoniae; five pneumococcal organisms, read-out: MICs): 0.004 to 0.03 µg/mL (≈ 0.0022 to 0.0165 µM) | MBC (S. aureus; S. aureus strain 25923): 0.25 µg/mL (≈ 0.138 µM) | MIC (S. aureus; S. aureus strain MRSA): 0.06 µg/mL (≈ 0.033 µM) | MBC (S. aureus; S. aureus strain Smith): 0.25 µg/mL (≈ 0.138 µM) | MIC (S. aureus; S. aureus strain Smith): 0.12 µg/mL (≈ 0.0661 µM) | MBC (S. aureus; [7]): 0.25 µg/mL (≈ 0.138 µM) | MIC (S. aureus; [7]): 0.12 µg/mL (≈ 0.0661 µM) | MBC (S. aureus; Staphylococcus aureus, S. aureus strain 25923): 0.5 µg/mL (≈ 0.275 µM) | MIC (S. aureus; Staphylococcus aureus, S. aureus strain 31005): 0.06 µg/mL (≈ 0.033 µM) | MBC (S. aureus; Staphylococcus aureus, S. aureus strain 33591): 0.25 µg/mL (≈ 0.138 µM) | MIC (S. aureus; Staphylococcus aureus, S. aureus strain 307109): 0.06 µg/mL (≈ 0.033 µM) | MBC (S. aureus; [8]): 0.5 µg/mL (≈ 0.275 µM) | MIC (S. aureus; [8]): 0.06 µg/mL (≈ 0.033 µM) | MIC (S. aureus; Staphylococcus aureus, read-out: MICs, six S. aureus isolates): 0.06 to 0.12 µg/mL (≈ 0.033 to 0.0661 µM) | tolerability [5]: well tolerated | MIC (E faecalis; L 149 E faecalis): 0.06 µg/mL (≈ 0.033 µM) | MIC (E faecalis; L 562 E faecalis clin. isolate): > 32 µg/mL | Clinical Success Rate ([6]; Clinically evaluable at EOT, Single-dose (1100 mg)): 13/16 (61.5) % | Clinical Success Rate ([6]; Clinically evaluable at EOT, Two-dose (1000/500 mg)): 16/17 (94.1) % | Clinical Success Rate ([6]; Clinically evaluable at FU, Single-dose (1100 mg)): 8/13 (61.5) % | Clinical Success Rate ([6]; Clinically evaluable at FU, Two-dose (1000/500 mg)): 16/17 (94.1) % | Clinical Success Rate ([6]; ITT at EOT, Single-dose (1100 mg)): 15/20 (75.0) % | Clinical Success Rate ([6]; ITT at EOT, Two-dose (1000/500 mg)): 19/21 (90.5) % | Clinical Success Rate ([6]; ITT at FU, Single-dose (1100 mg)): 12/20 (60.0) % | Clinical Success Rate ([6]; ITT at FU, Two-dose (1000/500 mg)): 19/21 (90.5) % | Clinical Success Rate ([6]; MITT at EOT, Single-dose (1100 mg)): 10/14 (71.4) % | Clinical Success Rate ([6]; MITT at EOT, Two-dose (1000/500 mg)): 12/13 (92.3) % | Clinical Success Rate ([6]; MITT at FU, Single-dose (1100 mg)): 7/14 (50.0) % | Clinical Success Rate ([6]; MITT at FU, Two-dose (1000/500 mg)): 12/13 (92.3) % | Clinical Success Rate ([6]; MITT population with MRSA, FU assessment, single-dose): 50% | Clinical Success Rate ([6]; MITT population with MRSA, FU assessment, two-dose): 80% | Clinical Success Rate ([6]; Microbiologically evaluable at EOT, Single-dose (1100 mg)): 10/13 (76.9) % | Clinical Success Rate ([6]; Microbiologically evaluable at EOT, Two-dose (1000/500 mg)): 10/11 (90.9) % | Clinical Success Rate ([6]; Microbiologically evaluable at FU, Single-dose (1100 mg)): 6/11 (54.5) % | Clinical Success Rate ([6]; Microbiologically evaluable at FU, Two-dose (1000/500 mg)): 10/11 (90.9) % | Clinical Success Rate ([6]; clinically-evaluable population, FU assessment, single-dose: 1100 mg IV day 1): 61.5% | Clinical Success Rate ([6]; clinically-evaluable population, FU assessment, two-dose: 1 g IV day 1 + 500 mg IV day 8): 94.1% and 94% | fraction unbound (in vitro): 0.004 | MIC (P aeruginosas): > 32 µg/mL
